Kd data for one molecule are collected here from publication PMC10173194 (Journal of Advanced Research, 2022).

This assay deals with T1, PKCε (Homo sapiens, UniProt Q02156).
T1 sequence (Q02156 1-737): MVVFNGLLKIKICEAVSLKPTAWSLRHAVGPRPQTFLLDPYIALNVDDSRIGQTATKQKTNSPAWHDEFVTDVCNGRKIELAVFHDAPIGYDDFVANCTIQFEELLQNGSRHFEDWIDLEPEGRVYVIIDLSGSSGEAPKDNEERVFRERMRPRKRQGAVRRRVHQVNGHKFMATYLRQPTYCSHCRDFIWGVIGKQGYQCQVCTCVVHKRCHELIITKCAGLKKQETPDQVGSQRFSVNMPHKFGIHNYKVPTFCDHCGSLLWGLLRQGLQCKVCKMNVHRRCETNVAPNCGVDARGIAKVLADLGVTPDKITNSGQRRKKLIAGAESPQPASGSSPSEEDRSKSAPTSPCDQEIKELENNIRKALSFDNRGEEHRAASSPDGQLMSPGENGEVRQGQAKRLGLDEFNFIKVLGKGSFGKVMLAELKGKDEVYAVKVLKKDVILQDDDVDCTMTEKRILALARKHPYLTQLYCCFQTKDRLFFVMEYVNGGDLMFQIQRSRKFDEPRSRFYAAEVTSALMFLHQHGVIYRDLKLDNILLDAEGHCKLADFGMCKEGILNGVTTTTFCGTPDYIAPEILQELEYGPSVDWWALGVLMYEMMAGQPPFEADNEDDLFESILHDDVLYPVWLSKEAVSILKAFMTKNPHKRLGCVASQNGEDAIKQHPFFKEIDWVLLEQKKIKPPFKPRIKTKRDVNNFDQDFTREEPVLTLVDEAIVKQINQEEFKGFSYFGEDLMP
In words: SPR. The assay is classed as binding.

In general, Kd refers to the free concentration of one partner at which half of the binding sites on the other are occupied at equilibrium, for simple one-to-one binding.

On to `COc1cccc2c1C(=O)c1c(O)c3c(c(O)c1C2=O)C[C@@](O)(C(=O)CO)C[C@@H]3O[C@H]1C[C@H](N)[C@H](O)[C@H](C)O1` [Dox, Doxorubicin], for which binding was put at a Kd of 44.8 µM.
